Data: patent US12576083B2, “Combinational therapy of LSD1 inhibitors with P21 activators in the treatment of cancer” (Istituto Europeo di Oncologia S.r.l., priority 2017, dated 2026)
Entries after “also recorded” stand apart in the source; their conditions may differ.

Legend:
MMC-38B and MMC-34 cells [1] = assay: Cell cycle analysis of MMC-38B and MMC-34 melanoma cells; type: cell-based, human; settings: MMC-38B and MMC-34, rescued by p21 knock-down
Experimental: FIG. 16B depicts cell-cycle status of melanoma cells analyzed in FIG. 16A.
(§1) MMC-38B and MMC-34 cells were treated with p21-shRNA (“P21KD-DMSO”), scramble shRNA (“SCR-DMSO”), scramble shRNA plus LSD1 inhibitor (MC2580) (“SCR-LSD1i”), or p21-shRNA plus MC2580 (“P21KD-LSD1i”). Tubulin was used as a loading control.

p21 [2] = assay: Western-blot of p21 in Kasumi cells; type: cell-based
Excerpt: FIGS. 7A-7F. […] (FIG. 7C) Relative proliferation of Kasumi cells infected with SCR (control) or p21 shRNA treated with MC2580. (FIG. 7D) Representative light micrograph show Wright-Giemsa staining of Kasumi cells after 1 week treatment with indicated inhibitors. (FIG. 7E) summary of cell-cycle status of Kasumi cells following 1 week treatment with indicated inhibitors. (FIG. 7F) Immunoblot of P21 in MC2580-treated Kasumi cells. (SCR=Scramble shRNA, NI=Not Infected, LSD1i=LSD1 inhibitor=MC2580).
(§2) Kasumi cells were treated with p21-shRNA, scramble shRNA (SCR), LSD1 inhibitor MC2580, p21-shRNA plus MC2580, scramble shRNA (SCR) plus MC2580. Non-infected (NI) Kasumi cells were included as control. The proliferation of the treated cells were quantified before treatment and post-treatment from day 2, day 4, and day 7 (FIG. 7C). The cells following the 1 week treatment were analyzed under light micrographs using Wright-Giemsa staining (FIG. 7D). Cell cycle analysis were performed following the 1 week treatment.

CD11b gene = CD11b gene expression in UF1 cells (mRNA normalized against GAPDH); type: cell-based
Experimental: (§3) FIGS. 2A-2E. […] (FIG. 2A) Relative proliferation of UF1 cells treated with MC2580 (2 μM) and/or retinoic acid (10 nM) for 1 week. (FIG. 2B) Representative light micrograph show Wright-Giemsa staining of UF1 cell after treatment for 1 week. […] Values are normalized against GAPDH. (FIG. 2D) Immunoblot of PML-RARα in treated UF1 cells with indicated inhibitors. LSD1 inhibitors induces differentiation without PML-RARα degradation. (tubulin serves as control). (FIG. 2E) summary of cell-cycle status of UF1 cells following 1 week treatment with indicated inhibitors. (retinoic acid low(l)=10 nM, LSD1i=LSD1 inhibitor=MC2580).
(§4) Acute promyelocytic leukemia (APL) UF1 cells were treated with 2 μM LSD1 inhibitor MC2580, 10 nM retinoic acid (RA), 2 μM LSD1 inhibitor MC2580 plus 10 nM RA, and DMSO (control) for 7 days. The proliferation of the treated cells were quantified before treatment and post-treatment from each of day 2 to day 7 (FIG. 2A). The cells following the 1 week treatment were analyzed under light micrographs using Wright-Giemsa staining (FIG. 2B). The LSD1-inhibition induced expression of CD11b gene expression were analyzed. The mRNA of CD11b of the treated cells under each condition were normalized using GAPDH (FIG. 2C). PML-RARα protein level in the treated cells was analyzed by immune-blotting using an antibody against PML-RARα. Immuno-blotting of tubulin was used as loading control. […]

p21 [3] = assay: Western-blot of p21 in NCI-H69 cells; type: cell-based
Experimental: (§5) FIGS. 8A-8D. […] (FIG. 8B) Relative proliferation of NCI-H69 cells infected with SCR (control) or p21 shRNA treated with MC2580. (FIG. 8C) Summary of cell-cycle status of NCI-H69 cells following 10 days treatment with indicated inhibitors. (FIG. 8D) Immunoblot of P21 in MC2580-treated NCI-H69 cells. (SCR=Scramble shRNA, NI=Not Infected, LSD1i=LSD1 inhibitor=MC2580).
as §2, with “NCI-H69” for “Kasumi”, “4, day 6, day 8,” for “4,”, “10” for “7”, “8B).” for “7C). The cells following the 1 week treatment were analyzed under light micrographs using Wright-Giemsa staining (FIG. 7D).”

UF1 cells = assay: Cell cycle analysis of UF1 cells; type: cell-based; settings: 1 week treatment
Experimental: Acute promyelocytic leukemia (APL) UF1 cells were treated with 2 μM LSD1 inhibitor MC2580, 10 nM retinoic acid (RA), 2 μM LSD1 inhibitor MC2580 plus 10 nM RA, and DMSO (control) for 7 days. The proliferation of the treated cells were quantified before treatment and post-treatment from each of day 2 to day 7 (FIG. 2A). The cells following the 1 week treatment were analyzed under light micrographs using Wright-Giemsa staining (FIG. 2B). The LSD1-inhibition induced expression of CD11b gene expression were analyzed. The mRNA of CD11b of the treated cells under each condition were normalized using GAPDH (FIG. 2C). PML-RARα protein level in the treated cells was analyzed by immune-blotting using an antibody against PML-RARα. Immuno-blotting of tubulin was used as loading control. (FIG. 2D). […] Cell cycle analysis were performed following the 1 week treatment. […] (FIG. 2E).
as §2, with “UF1” for “Kasumi”, “from each of” for “from”, “2 to” for “2, day 4, and”, “5C).” for “7C).”, “5D).” for “7D).”, “treatment. […] (FIG. 5E).” for “treatment.”

[4] = test system: Acute promyelocytic leukemia (APL) NB4 cells; assay: NB4 cells treated with MC2580: proliferation, Wright-Giemsa staining, serial replating CFU assay; type: cell-based; settings: 2 μM, 6 days, DMSO control
Experimental: FIGS. 1A-1C. […] (FIG. 1A) Relative proliferation of NB4 APL cells treated with MC2580 ([…]) and RA ([…]) for indicated times (DMSO serves as control). (FIG. 1B) Representative light micrographs show Wright-Giemsa staining of NB4 cell after treatment for 6 days. (DMSO serves as a control). (FIG. 1C) Analysis of the proliferative potential of treated NB4 cells by serial replating assay. (DMSO serves as control). (RA high(h)=retinoic acid, 1 μM, LSD1i=LSD1 inhibitor=MC2580).
Acute promyelocytic leukemia (APL) NB4 cells were treated with 2 μM LSD1 inhibitor MC2580, 1 μM retinoic acid (RA), and DMSO (control) for 6 days. The proliferation of the treated cells were quantified before treatment and during each of the 6 days (FIG. 1A). The treated cells were analyzed under light micrographs using Wright-Giemsa staining (FIG. 1B). The proliferation potential of the treated cells were analyzed by serial replating and Colony-Forming Unit (CFU) Assay (FIG. 1C).

PML-RARα = assay: Immunoblot of PML-RARα in treated UF1 cells; type: cell-based; settings: tubulin loading control
Experimental: as §3, §4

Kasumi cells = assay: Cell cycle analysis of Kasumi cells; type: cell-based; settings: 1 week treatment
Experimental: as §2

p21 [5] = assay: p21 protein (Western-blot) and p21 gene expression in UF1 cells; type: cell-based
Experimental: FIGS. 6A-6B. LSD1 inhibition leads to further upregulation of P21 RNA and protein level but not in P21KD cells. (FIG. 6A) Immunoblot of P21 in MC2580-treated UF1 cells. […] (SCR=Scramble shRNA, NI=Not Infected, LSD1i=LSD1 inhibitor=MC2580).
UF1 cells were treated with p21-shRNA, scramble shRNA (SCR), LSD1 inhibitor MC2580, p21-shRNA plus MC2580, scramble shRNA (SCR) plus MC2580. Non-infected (NI) UF1 cells were included as control. Immuno-blotting of tubulin was used as loading control.

[6] = test system: primary human melanoma cell lines (MMC-27B, MMC-49, MMC-936, MMC-35, MMC-38B, MMC-34); assay: Proliferation of six primary human melanoma cell lines with or without MC2580; type: cell-based; settings: MC2580 2 μM, 6 days, versus cell lines having a shorter doubling time
Experimental: FIG. 14 depicts the proliferation of six primary human melanoma cell lines (MMC-27B, MMC-49, MMC-936, MMC-35, MMC-38B, MMC-34) over 6 days with or without treatment of LSD1 inhibitor MC2580 (2 μM) was analyzed. “MC” stands for MC2580 treated cells. “DMSO” stands for control cells treated with DMSO.
The proliferation of six primary human melanoma cell lines (MMC-27B, MMC-49, MMC-936, MMC-35, MMC-38B, MMC-34) over 6 days with or without treatment of an LSD1 inhibitor (MC2580) was analyzed. “MC” stands for MC2580 treated cells. Control cells (“DMSO”) were treated with DMSO.

[7] = test system: small cell lung carcinoma NCI-H69 cells; assay: Cell cycle analysis of NCI-H69 cells; type: cell-based; settings: 1 week treatment
Experimental: as §5
as §2, with “NCI-H69” for “Kasumi”, “4, day 6, day 8,” for “4,”, “10” for “7”, “8B).” for “7C). The cells following the 1 week treatment were analyzed under light micrographs using Wright-Giemsa staining (FIG. 7D).”

p21 gene = assay: Chromosome Conformation Capture assays (3C-qPCR) in UF1 and NB4 cells; type: cell-based; settings: UF1 and NB4 cells, 12, 24, or 36 hours
Experimental: FIG. 27 depicts results from chromosome conformation capture assays (3C-qPCR) performed with chromatin from UF1 and NB4 cells that were treated for indicated times with the LSD1 inhibitor MC2580. (NT: not treated).
Luciferase reporter assays were performed to measure the activity of enhancer 1 (“E1”) and enhancer 1 (“E2”) of the p21 gene promoter in 293T cells and the results are depicted in FIG. 26. The pGL3 plasmid without the enhancer region (empty) was used as a negative control. Chromosome Conformation Capture assays (3C-qPCR) were performed with chromatin from UF1 and NB4 cells that were treated with the LSD1 inhibitor MC2580 for 12, 24, or 36 hours and the results are depicted in FIG. 27. Untreated cells (“Neg”) were included as control.

MMC-38B and MMC-34 cells [8] = assay: Proliferation of MMC-38B and MMC-34 melanoma cells with shRNA and MC2580; type: cell-based, human; settings: MMC-38B and MMC-34, 6 days, rescued by p21 knock-down
Experimental: FIG. 16A depicts relative proliferation of melanoma cells (MMC-38B and MMC-34) that were treated with p21-shRNA (“P21KD-DMSO”), scramble shRNA (“SCR-DMSO”), scramble shRNA plus LSD1 inhibitor MC2580 (“SCR-LSD1i”), or p21-shRNA plus MC2580 (“P21KD-LSD1i”). Data are presented as mean of triplicates±SD.
as §1

NB4 cells = NB4 cells treated with HDAC inhibitors with or without MC2580: proliferation, staining, cell cycle analysis; type: cell-based; settings: versus untreated control cells (Scr-DMSO), 1 week treatment
Excerpt: FIGS. 10A-10D. […] (FIG. 10A) Relative proliferation of NB4 cells infected with SCR (control) or p21 shRNA and treated with HDAC inhibitor and/or MC2580. (FIG. 10B and FIG. 10C) Representative light micrograph show Wright-Giemsa staining of NB4 cells infected with SCR (control) or p21 shRNA and treated with HDAC inhibitor and/or MC2580. (FIG. 10D) Summary of cell-cycle status of NB4 cells infected with SCR (control) or p21 shRNA and treated with HDAC inhibitor and/or MC2580. (SCR=Scramble shRNA, NI=Not Infected, LSD1i=LSD1 inhibitor=MC2580).
NB4 cells were treated with HDAC inhibitors, trichostatin A (TSA) and suberoylanilide hydroxamic acid (SAHA), in combination with p21-shRNA or scramble shRNA (SCR), with or without LSD1 inhibitor MC2580. NB4 cells with p21 knock-down without HDAC inhibitor treatment (p21KD-DMSO), NB4 cells without p21 knock-down and without HDAC inhibitor treatment (Scr-DMSO) were included as control. The proliferation of the treated cells were quantified before treatment and post-treatment from day 2, day 4, and day 6 (FIG. 10A). The treated cells were analyzed under light micrographs using Wright-Giemsa staining (FIG. 10B and FIG. 10C). Cell cycle analysis were performed following the 1 week treatment.

[9] = test system: Acute promyelocytic leukemia (APL) UF1 cells; assay: UF1 cells treated with MC2580: proliferation and Wright-Giemsa staining; type: cell-based; settings: 2 μM, 7 days, DMSO control
Experimental: as §3, §4

p21 [10] = assay: p21 expression (immunoblotting) in MMC-38B and MMC-34 melanoma cells; type: cell-based, human; settings: MMC-38B and MMC-34, rescued by p21 knock-down
Experimental: FIG. 16C depicts the p21 expression level in melanoma cells analyzed in FIG. 16A.
as §1

NC1CC1c1ccc(NC(=O)C(Cc2ccccc2)NC(=O)OCc2ccccc2)cc1 (centres unmarked) [MC2580]
cell cycle of human primary melanoma cells (MMC-38B and MMC-34 cells [1]): cell cycle arrest
p21 protein level in Kasumi cells (p21 [2]): increased
expression of the CD11b gene (myeloid differentiation marker) (CD11b gene): induces expression of the CD11b gene
p21 protein level in NCI-H69 cells (p21 [3]): increased
UF1 cells arrested at the G0/G1 phase (UF1 cells): More UF1 cells were arrested at the G0/G1 phase
sensitivity of NB4 cells to LSD1 inhibitor [4]: resistant to LSD1 inhibition; also recorded: largely insensitive
UF1 cell differentiation and PML-RARα degradation (PML-RARα): induces UF1 cells differentiation without PML-RARα degradation
Kasumi cells arrested at the G0/G1 phase (Kasumi cells): More Kasumi cells were arrested at the G0/G1 phase
p21 gene (CDKN1A) expression in UF1 cells (p21 [5]): induces p21 expression; also recorded: expressed at a higher level
p21 protein level in UF1 cells (p21 [5]; Western-blot, tubulin loading control): increased
proliferation of slow-cycling melanoma cell lines (MMC-38B, MMC-34) [6]: more affected
NCI-H69 cells arrested at the G0/G1 phase [7]: More NCI-H69 cells were arrested at the G0/G1 phase
looping of E1 and E2 enhancer regions to the transcription start site of the p21 gene (p21 gene): induces dynamic looping
cell growth of human primary melanoma cells (MMC-38B and MMC-34 cells [8]): cell growth inhibition
NB4 cells arrested at the G0/G1 phase, LSD1 inhibitor alone (NB4 cells): More NB4 cells were arrested at the G0/G1 phase
sensitivity of UF1 cells to LSD1 inhibitor [9]: sensitive
p21 expression in human primary melanoma cells (p21 [10]): increase of p21 expression
